Values quoted from earlier work as cited in US20230165842A1, “NEW USES” (priority 2020, published 2023).
Read-outs that look alike come from different tables or passages of the source.

Legend:
[1] = tested on: patients hospitalized with COVID-19; conditions: With Calcifediol Treatment (n = 50)
[2] = tested on: COVID-19 cases; conditions: conclusion for the named statins
[3] = tested on: Vero E6 cells
[4] = tested on: SARS-CoV-2; conditions: Vero E6; for IC50: 2 h pre-treatment, 24 h
[5] = tested on: SARS-CoV-2; conditions: virucidal activity; chlorphenamine maleate
[6] = tested on: IL1β; conditions: curcumin group
[7] = tested on: IL6; conditions: curcumin group
[8] = tested on: IL-18 and TNF-α; conditions: before and after intervention
[9] = tested on: SARS-CoV-2; conditions: Calu-3
[10] = tested on: Calu-3 cells
[11] = biological target: ACE2 (Homo sapiens, UniProt Q9BYF1); conditions: cell membrane chromatography and surface plasmon resonance
Chain of ACE2 (Q9BYF1 18-805): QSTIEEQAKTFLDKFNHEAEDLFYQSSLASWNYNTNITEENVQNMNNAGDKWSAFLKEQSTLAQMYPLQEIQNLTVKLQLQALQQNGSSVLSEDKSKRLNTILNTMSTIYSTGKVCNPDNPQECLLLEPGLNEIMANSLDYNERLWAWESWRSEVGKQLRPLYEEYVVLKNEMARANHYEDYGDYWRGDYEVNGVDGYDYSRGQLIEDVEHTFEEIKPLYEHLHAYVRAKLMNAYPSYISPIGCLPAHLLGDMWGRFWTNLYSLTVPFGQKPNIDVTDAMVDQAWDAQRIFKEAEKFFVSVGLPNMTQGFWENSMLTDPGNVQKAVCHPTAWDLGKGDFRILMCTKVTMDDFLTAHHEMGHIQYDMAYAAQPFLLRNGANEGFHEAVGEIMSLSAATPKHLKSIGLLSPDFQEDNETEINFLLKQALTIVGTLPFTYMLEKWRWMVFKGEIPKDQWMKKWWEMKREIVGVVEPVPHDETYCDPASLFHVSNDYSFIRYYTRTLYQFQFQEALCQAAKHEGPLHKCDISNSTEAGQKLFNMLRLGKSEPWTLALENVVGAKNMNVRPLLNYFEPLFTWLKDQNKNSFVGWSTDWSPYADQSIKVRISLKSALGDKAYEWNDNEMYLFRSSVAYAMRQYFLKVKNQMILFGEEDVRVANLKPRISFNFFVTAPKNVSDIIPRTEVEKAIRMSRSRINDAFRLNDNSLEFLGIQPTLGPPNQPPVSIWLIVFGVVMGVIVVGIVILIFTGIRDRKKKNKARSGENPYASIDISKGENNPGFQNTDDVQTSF

[12] = tested on: SARS-CoV-2 Spike pseudotyped virus; conditions: ACE2h HEK293T cells; Control = 1
[13] = tested on: SARS-CoV-2; conditions: pre-treated A549^AcE2; MOI 0.01; 24 hours; p<0.001 vs DMSO
[14] = tested on: SARS-CoV-2; conditions: pre-treated Vero-E6; MOI 0.01; 24 hours; p<0.001 vs DMSO
[15] = tested on: SARS-CoV-2
[16] = tested on: COVID-19 ARDS patients
[17] = tested on: SARS-CoV-2; conditions: Yang et al., 2020
[18] = tested on: SARS-CoV-2; conditions: Calu-3; remark: listed apart in the source
[19] = tested on: Calu-3
[20] = tested on: Vero E6
[21] = tested on: SARS-CoV-2; conditions: Vero E6
[22] = tested on: OC43; conditions: maximal across all concentrations
[23] = tested on: SARS-CoV-2; remark: listed apart in the source
[24] = tested on: OC43
[25] = tested on: SARS-CoV-2; conditions: Vero E6; with reduced cytotoxicity
[26] = tested on: human coronavirus (HCoV)-229E; conditions: MRC5 cells
[27] = tested on: SARS-CoV-2; conditions: treated 24 hours prior to infection; read-out: IC50 in Calu-3
[28] = tested on: SARS-CoV-2; conditions: Vero-E6; MOI 0.005
[29] = tested on: SARS-CoV-2; conditions: Vero cells; 2 h pre-treatment; vs DMSO control; p<0.0001
[30] = tested on: SARS-CoV-2; conditions: concentration dependent; data not shown
[31] = tested on: SARS-CoV-2; conditions: 10 μM; post-infection treatment; Vero E6; MOI 1

## C=C1CC[C@H](O)C/C1=C/C=C1\CCC[C@]2(C)[C@@H]([C@H](C)CCCC(C)(C)O)CC[C@@H]12 [Calcifediol, calcifediol]
[1]
  Not requiring ICU, n (%): 49 (98)
  Requiring ICU, n (%): 1 (2)

## CC(C)c1c(C(=O)Nc2ccccc2)c(-c2ccccc2)c(-c2ccc(F)cc2)n1CC[C@@H](O)C[C@@H](O)CC(=O)O [Compound 8, atorvastatin]
[2]
  mortality in patients infected with COVID-19: may reduce mortality

## CN(C)CCC(c1ccc(Cl)cc1)c1ccccn1 (stereo not shown) [Compound 16, chlorphenamine]
[3]
  CC50: 11.9 µM
[4]; MOI 0.004
  Selectivity Index (SI): 3.78
  IC50: 3.14 µM
[4]; MOI 0.01
  Selectivity Index (SI): 2.94
  IC50: 4.03 µM
[5]
  reduction in the viral load: 99.7%

## COc1cc(/C=C/C(=O)CC(=O)/C=C/c2ccc(O)c(OC)c2)ccc1O [Compound 21, curcumin]
[6]; 160 mg daily for 14 days
  IL1β mRNA expression level, after: 0.56
[6]; before intervention
  IL1β mRNA expression level, before: 1.01
[7]; 160 mg daily for 14 days
  IL6 mRNA expression level, after: 0.58
[7]; before intervention
  IL6 mRNA expression level, before: 0.98
[8]
  expression level of IL-18 and TNF-α: no statistically significant differences

## CCOC(=O)C1=C(C)NC(C)=C(C(=O)OC)C1c1cccc(Cl)c1Cl (stereo not shown) [Compound 30, felodipine]
[9]
  SI = CC50/EC50: 9784.86
[10]
  CC50: 123 µM

## CCOC(=O)N1CCC(=C2c3ccc(Cl)cc3CCc3cccnc32)CC1 [Compound 42, loratadine]
[11]
  binding to ACE2: could bind to ACE2
[12]
  pseudotype entry (mean): 0.7

## CC(C)c1nc(N(C)S(C)(=O)=O)nc(-c2ccc(F)cc2)c1/C=C/[C@@H](O)C[C@@H](O)CC(=O)O [Compound 64, rosuvastatin]
[2]
  mortality in patients infected with COVID-19: may reduce mortality

## CN1CCN(CCCN2c3ccccc3Sc3ccc(C(F)(F)F)cc32)CC1 [Compound 73, trifluoperazine]
[13]
  SARS-COV-2 replication (vRNA levels): successfully blocked
[14]
  SARS-COV-2 replication (vRNA levels): successfully blocked

## Clc1ccc2c(c1)CCc1cccnc1C2=C1CCNCC1 [Compound 80, desloratadine]
[12]
  pseudotype entry (mean): 0.3

## OCc1c[nH]c2ccccc12 [Compound 110, indole-3-carbinol]
[15]; 16.67 and 5.56 μM
  SARS-CoV-2-induced CPE: not affected
[15]; Vero E6, 50 μM, 72 h post-infection, vs DMSO
  reduced the SARS-CoV-2-induced CPE: about 60%
[15]; at the various concentrations tested
  virus yield reduction: 2 to 4 log

## COc1cc([C@@H]2c3cc4c(cc3[C@@H](O[C@@H]3O[C@@H]5CO[C@@H](C)O[C@H]5[C@H](O)[C@H]3O)[C@H]3COC(=O)[C@H]23)OCO4)cc(OC)c1O [Compound 137, etoposide]
[16]; 11 patients, 50-150 mg/m^2
  PaO2/FiO2 ratio improved, average: 195%
[16]; of 11 patients
  patients fully recovered and discharged home: Nine
  patients needed mechanical ventilation: Three
[16]; of 11 patients, thrombotic complications
  patients died: Two

## CC(CN1c2ccccc2Sc2ccccc21)N(C)C (stereo not shown) [Compound 144, promethazine]
[3]; Vero E6, listed as MOI 0.004
  CC50: > 42.6 µM
[3]; Vero E6, listed as MOI 0.01
  CC50: > 42.6 µM
[4]; MOI 0.004
  Selectivity Index (SI): 4.62
  IC50: 9.21 µM
[4]; MOI 0.01
  Selectivity Index (SI): 4.08
  IC50: 10.4 µM
[17]
  SARS-CoV-2 entry inhibition: SARS-CoV-2 entry inhibitor

## C[C@H]1[C@H](OC(=O)CCC(=O)O)O[C@@H]2O[C@@]3(C)CC[C@H]4[C@H](C)CC[C@@H]1[C@@]24OO3 [Compound 145, artesunate]
[18]
  IC50: 1.76 µM
  Selectivity Index (SI): >56.82
[19]
  CC50: > 100 µM
[20]
  CC50: > 100 µM
[21]
  IC50: 53.1 µM
  Selectivity Index (SI): >1.885

## O=C1NCN(c2ccccc2)C12CCN(CCCC(c1ccc(F)cc1)c1ccc(F)cc1)CC2 [Compound 158, fluspirilene]
[3]; Vero E6, listed as MOI 0.004
  CC50: 30.3 µM
[3]; Vero E6, listed as MOI 0.01
  CC50: 30.3 µM
[4]; MOI 0.004
  Selectivity Index (SI): 9.61
  IC50: 6.36 µM
[4]; MOI 0.01
  Selectivity Index (SI): >5.71
  IC50: 5.32 µM

## CS(=O)(=O)CCNCc1ccc(-c2ccc3ncnc(Nc4ccc(OCc5cccc(F)c5)c(Cl)c4)c3c2)o1 [Compound 187, lapatinib]
[22]
  Max % Inhibition of Viral Killing: 63.99%
[23]
  SARS-CoV-2 viral replication: strongly inhibited
[23]; at doses readily achievable in human tissues, data not shown
  toxicity: without any toxicity
[23]; data not shown
  inhibited SARS-CoV-2 replication: over 50,000 fold
[24]
  OC43 viral replication: strongly inhibited

## Oc1ccc(C=Cc2cc(O)cc(O)c2)cc1 [Compound 192, resveratrol]
[25]
  viral titer on SARS-CoV-2: showed a reduction of the viral titer
[26]
  EC50: 4.6 µM
  reduction of the viral titer: 80%

## CCN(CC)CCCC(C)Nc1ccnc2cc(Cl)ccc12 (stereo not shown) [Reference Compound 1, chloroquine]
[4]; MOI 0.004
  IC50: 42 µM
[4]; MOI 0.01
  IC50: 46.8 µM
[26]
  EC50: 5 µM
  reduction of the viral titer: 60%
[27]
  IC50: 69.2 µM
[28]
  EC50: 1.36 µM

## COc1ccc2nc3cc(Cl)ccc3c(Nc3cc(CN4CCCC4)c(O)c(CN4CCCC4)c3)c2n1 [Reference Compound 4, pyronaridine]
[18]
  IC50: 6.41 µM
  Selectivity Index (SI): 6.718
[19]; Calu-3
  CC50: 43.1 µM
[20]; Vero E6
  CC50: 37.1 µM
[21]
  IC50: 1.08 µM
  Selectivity Index (SI): 34.22

## CCN(CCO)CCCC(C)Nc1ccnc2cc(Cl)ccc12 (stereo not shown) [Reference Compound 5, hydroxychloroquine]
[18]
  IC50: 103 µM
  Selectivity Index (SI): >0.972
[19]; Calu-3
  CC50: > 100 µM
[20]; Vero E6
  CC50: > 100 µM
[29]
  decrease in viral load: 26.9 fold
[21]
  IC50: 1.07 µM
  Selectivity Index (SI): >93.55

## CC(=O)OCOC(=O)CN(CC(=O)OCOC(C)=O)c1ccccc1OCCOc1ccccc1N(CC(=O)OCOC(C)=O)CC(=O)OCOC(C)=O [compound 15, BAPTA-AM]
[30]
  inhibition of SARS-CoV-2 replication: significantly inhibit

## NCCOB(c1ccccc1)c1ccccc1 [compound 16]
[30]
  inhibition of SARS-CoV-2 replication: significantly inhibit

## calcitriol [Compound 142]
[31]
  reduction of SARS-CoV-2 titre: 1.3 log 10

## maraviroc [Compound 170]
[29]
  decrease in viral load: 30.7 fold

## saracatinib [Compound 112]
[22]
  Max % Inhibition of Viral Killing: 22.48%
[23]
  SARS-CoV-2 viral replication: inhibition also observed
[24]
  OC43 viral replication: inhibition also observed
